# Experimental data taken from patent US9303044B2, “7-(piperazin-1-yl)-5H-[1,3,4]thiadiazolo[3,2-A]pyrimidin-5-ones for the treatment of thrombotic disorders” (The Rockefeller University, priority 2012, dated 2016).
# Tested on: platelet aggregation
# Test: ADP-induced platelet aggregation assay in citrated platelet-rich plasma
# Format: cell-based
# Conditions: Homo sapiens, initial slopes, read-out: IC50, inhibition of platelet aggregation
# Protocol: The platelet aggregation assay may be conducted by modification of the assay as disclosed in Blue et al., Blood 2008, 111, 1248, the contents of which are incorporated by reference in their entirety. Citrated platelet-rich plasma (PRP), may be generated by the centrifugation of whole blood at 650 g for 4 minutes at 22° C., and may then be incubated in aggregometer cuvettes with Compounds of the Invention (final concentration of 100 μM, 30 μM, 10 μM, 1 μM, 0.30 μM, 0.1 μM, 0.03 μM and 0.01 μM) or controls for 15 minutes at 37° C. After 30 seconds in the aggregometer (Bio/Data PAP8; Horsham, Pa.) at 37° C. with stiffing, ADP (5-20 μM) may be added to induce aggregation and the light transmittance is measured for 8 minutes. The initial slopes of aggregation in the presence of different concentrations of the Compound tested may be used to generate an IC50.
row,IC50,Compound
1,53.6 ± 15.5 nM,"NCC(=O)Nc1cc(-c2nn3c(=O)cc(N4CCNCC4)nc3s2)ccn1 [Example 14-B, 2-amino-N-(4-(5-oxo-7-(piperazin-1-yl)-5H-[1,3,4]thiadiazolo[3,2-a]pyrimidin-2-yl)pyridin-2-yl)acetamide]"
2,62 ± 10 nM,"NCC(=O)Nc1cncc(-c2nn3c(=O)cc(N4CCNCC4)nc3s2)c1 [Example 14-C, 2-Amino-N-(5-(5-oxo-7-(piperazin-1-yl)-5H-[1,3,4]thiadiazolo[3,2-a]pyrimidin-2-yl)pyridin-3-yl)acetamide]"
